Data: the NIST ThermoML archive (doi:10.1021/je800152d)

Experiment: cn = amount concentration of the nth substance listed, in mol/dm3
Conditions: 298.15 K, 101 kPa, Liquid, Direct current cell with electrodes

CCCCCCn1cc[n+](C)c1.F[P-](F)(F)(F)(F)F [1-hexyl-3-methylimidazolium hexafluorophosphate] + ClCCl
Conditions | molar conductivity [S·m2/mol]
c1 = 2.071e-05 | 0.005749
c1 = 5.447e-05 | 0.004058
c1 = 8.254e-05 | 0.003448
c1 = 0.0001144 | 0.003025
c1 = 0.000155 | 0.002673
c1 = 0.0002089 | 0.002363
c1 = 0.0002627 | 0.002148
c1 = 0.0003123 | 0.001996
c1 = 0.0003903 | 0.001821
c1 = 0.0004551 | 0.00171

CCCC[n+]1ccn(C)c1.O=S(=O)([N-]S(=O)(=O)C(F)(F)F)C(F)(F)F + ClCCl
Conditions | molar conductivity [S·m2/mol]
c1 = 3.993e-05 | 0.005031
c1 = 7.416e-05 | 0.004
c1 = 0.0001094 | 0.00344
c1 = 0.0001439 | 0.003085
c1 = 0.0001819 | 0.002807
c1 = 0.0002096 | 0.002651
c1 = 0.0002378 | 0.002519
c1 = 0.0002686 | 0.002394
c1 = 0.000298 | 0.002296
c1 = 0.0003273 | 0.002211

CCCCn1cc[n+](C)c1.F[B-](F)(F)F [1-butyl-3-methylimidazolium tetrafluoroborate] + ClCCl
Conditions | molar conductivity [S·m2/mol]
c1 = 4.455e-05 | 0.003701
c1 = 0.0001304 | 0.002353
c1 = 0.0002072 | 0.001927
c1 = 0.0002805 | 0.001689
c1 = 0.0003592 | 0.00152
c1 = 0.0004262 | 0.001412
c1 = 0.0005183 | 0.001299
c1 = 0.000625 | 0.0012
c1 = 0.0007268 | 0.001127
c1 = 0.0008458 | 0.001058

CCCCCCCC[n+]1ccn(C)c1.F[B-](F)(F)F [1-methyl-3-octylimidazolium tetrafluoroborate] + ClCCl
Conditions | molar conductivity [S·m2/mol]
c1 = 7.212e-05 | 0.002781
c1 = 0.0001299 | 0.002171
c1 = 0.000219 | 0.001735
c1 = 0.0002957 | 0.001524
c1 = 0.0003827 | 0.001364
c1 = 0.0004665 | 0.001253
c1 = 0.0005719 | 0.001149
c1 = 0.0006901 | 0.001061
c1 = 0.0008223 | 0.000986
c1 = 0.0009584 | 0.0009257

CCCCn1cc[n+](C)c1.F[P-](F)(F)(F)(F)F [1-butyl-3-methylimidazolium hexafluorophosphate] + ClCCl
Conditions | molar conductivity [S·m2/mol]
c1 = 6.999e-05 | 0.003807
c1 = 0.0001329 | 0.002948
c1 = 0.0001743 | 0.002637
c1 = 0.0002133 | 0.002425
c1 = 0.0002543 | 0.002259
c1 = 0.0003123 | 0.002073
c1 = 0.0003665 | 0.001941
c1 = 0.0004379 | 0.001804
c1 = 0.0005447 | 0.001647
c1 = 0.0006393 | 0.001541

CCCCn1cc[n+](C)c1C.F[P-](F)(F)(F)(F)F [1-butyl-2,3-dimethylimidazolium hexafluorophosphate] + ClCCl
Conditions | molar conductivity [S·m2/mol]
c1 = 4.824e-05 | 0.006815
c1 = 9.247e-05 | 0.00553
c1 = 0.0001694 | 0.004468
c1 = 0.0002351 | 0.003966
c1 = 0.0003147 | 0.003557
c1 = 0.0003984 | 0.003254
c1 = 0.0004826 | 0.003028
c1 = 0.0005864 | 0.002809
c1 = 0.0007039 | 0.002623
c1 = 0.0008092 | 0.002481

CCCCn1cc[n+](C)c1C.F[B-](F)(F)F [1-butyl-2,3-dimethylimidazolium tetrafluoroborate] + ClCCl
Conditions | molar conductivity [S·m2/mol]
c1 = 4.614e-05 | 0.006049
c1 = 9.614e-05 | 0.0047
c1 = 0.0001552 | 0.003942
c1 = 0.0002185 | 0.003459
c1 = 0.0002763 | 0.003161
c1 = 0.0003472 | 0.002891
c1 = 0.0004196 | 0.002684
c1 = 0.0005021 | 0.002502
c1 = 0.0005985 | 0.002336
c1 = 0.0006827 | 0.00222

CCCCCCCC[n+]1ccn(C)c1.F[P-](F)(F)(F)(F)F [1-octyl-3-methylimidazolium hexafluorophosphate] + ClCCl
Conditions | molar conductivity [S·m2/mol]
c1 = 2.186e-05 | 0.005349
c1 = 5.202e-05 | 0.003925
c1 = 8.128e-05 | 0.003298
c1 = 0.0001312 | 0.002717
c1 = 0.0001741 | 0.00242
c1 = 0.000228 | 0.002164
c1 = 0.0002847 | 0.001973
c1 = 0.00035 | 0.00181
c1 = 0.0004112 | 0.001693
c1 = 0.000468 | 0.001605

CCCCCCCCn1cc[n+](C)c1.O=S(=O)([N-]S(=O)(=O)C(F)(F)F)C(F)(F)F + ClCCl
Conditions | molar conductivity [S·m2/mol]
c1 = 1.807e-05 | 0.005919
c1 = 4.306e-05 | 0.004426
c1 = 7.895e-05 | 0.003536
c1 = 0.0001156 | 0.003048
c1 = 0.0001516 | 0.002738
c1 = 0.0001934 | 0.002482
c1 = 0.0002361 | 0.002291
c1 = 0.0002758 | 0.002153
c1 = 0.000322 | 0.002022
c1 = 0.000369 | 0.001913

CCCCCCn1cc[n+](C)c1.F[B-](F)(F)F [1-hexyl-3-methylimidazolium tetrafluoroborate] + ClCCl
Conditions | molar conductivity [S·m2/mol]
c1 = 5.56e-05 | 0.003176
c1 = 0.000168 | 0.001993
c1 = 0.000301 | 0.001551
c1 = 0.0004416 | 0.001315
c1 = 0.0005288 | 0.001218
c1 = 0.0006627 | 0.001107
c1 = 0.0007566 | 0.001048
c1 = 0.0009189 | 0.0009669
c1 = 0.001094 | 0.0009009
c1 = 0.001243 | 0.000856

CCCCCC[n+]1ccn(C)c1.O=S(=O)([N-]S(=O)(=O)C(F)(F)F)C(F)(F)F + ClCCl
Conditions | molar conductivity [S·m2/mol]
c1 = 3.872e-05 | 0.004826
c1 = 7.796e-05 | 0.003727
c1 = 0.0001134 | 0.003224
c1 = 0.0001471 | 0.002907
c1 = 0.0001812 | 0.002674
c1 = 0.000212 | 0.00251
c1 = 0.0002454 | 0.002365
c1 = 0.0002746 | 0.002261
c1 = 0.0003046 | 0.002169
c1 = 0.0003313 | 0.002097

CC[N+](CC)(CC)CC.F[B-](F)(F)F [tetraethylammonium tetrafluoroborate] + ClCCl
Conditions | molar conductivity [S·m2/mol]
c1 = 5.65e-05 | 0.006094
c1 = 0.000125 | 0.004646
c1 = 0.0002055 | 0.003888
c1 = 0.0002819 | 0.003459
c1 = 0.0003766 | 0.003101
c1 = 0.0004713 | 0.002847
c1 = 0.0005736 | 0.002643
c1 = 0.0006991 | 0.00245
c1 = 0.0007981 | 0.00233
c1 = 0.0008975 | 0.002227

CC[N+](CC)(CC)CC.F[P-](F)(F)(F)(F)F [tetraethylammonium hexafluorophosphate] + ClCCl
Conditions | molar conductivity [S·m2/mol]
c1 = 2.991e-05 | 0.008681
c1 = 7.038e-05 | 0.00678
c1 = 0.0001289 | 0.005542
c1 = 0.0001812 | 0.004911
c1 = 0.0002384 | 0.004448
c1 = 0.0002993 | 0.00409
c1 = 0.0003669 | 0.003794
c1 = 0.0004231 | 0.003599
c1 = 0.000508 | 0.003365
c1 = 0.0006057 | 0.003153

CCCCn1cc[n+](C)c1C.O=S(=O)([N-]S(=O)(=O)C(F)(F)F)C(F)(F)F + ClCCl
Conditions | molar conductivity [S·m2/mol]
c1 = 1.989e-05 | 0.008834
c1 = 6.027e-05 | 0.006684
c1 = 9.148e-05 | 0.005885
c1 = 0.000124 | 0.005336
c1 = 0.0001564 | 0.004935
c1 = 0.0001888 | 0.004628
c1 = 0.0002366 | 0.004278
c1 = 0.0002859 | 0.004001
c1 = 0.0003299 | 0.003802
c1 = 0.0003742 | 0.003634

CCCC[N+](CCCC)(CCCC)CCCC.O=S(=O)([N-]S(=O)(=O)C(F)(F)F)C(F)(F)F [tetrabutylammonium bis[(trifluoromethyl)sulfonyl]imide] + ClCCl
Conditions | molar conductivity [S·m2/mol]
c1 = 3.138e-05 | 0.007892
c1 = 6.11e-05 | 0.006903
c1 = 0.0001374 | 0.005603
c1 = 0.0001725 | 0.00525
c1 = 0.0002161 | 0.00489
c1 = 0.0002632 | 0.004603
c1 = 0.0003161 | 0.004342
c1 = 0.0003672 | 0.004133
c1 = 0.0004141 | 0.003988

C[N+](C)(C)C.O=S(=O)([N-]S(=O)(=O)C(F)(F)F)C(F)(F)F [tetramethylammonium bis[(trifluoromethyl)sulfonyl]imide] + ClCCl
Conditions | molar conductivity [S·m2/mol]
c1 = 1.807e-05 | 0.006904
c1 = 4.669e-05 | 0.005019
c1 = 8.293e-05 | 0.004043
c1 = 0.0001225 | 0.003465
c1 = 0.0001669 | 0.003057
c1 = 0.000209 | 0.002792
c1 = 0.0002676 | 0.002521
c1 = 0.0003329 | 0.002305
c1 = 0.0004062 | 0.002123
c1 = 0.0004962 | 0.001957

CC[N+](CC)(CC)CC.O=S(=O)([N-]S(=O)(=O)C(F)(F)F)C(F)(F)F [tetraethylammonium bis[(trifluoromethyl)sulfonyl]imide] + ClCCl
Conditions | molar conductivity [S·m2/mol]
c1 = 2.423e-05 | 0.009105
c1 = 5.571e-05 | 0.007427
c1 = 9.604e-05 | 0.006311
c1 = 0.0001485 | 0.005431
c1 = 0.0001889 | 0.005043
c1 = 0.0002419 | 0.004629
c1 = 0.0002877 | 0.004339
c1 = 0.0004028 | 0.003882
c1 = 0.0004632 | 0.003716
